For orientation: Solubility means how much of the substance goes into solution per volume. A high value points to much dissolved substance.

Data set [1] can be described thus: Dynamic vapour sorption (DVS). Type of data set: physicochemical. The protocol:
DVS (SPS): Sorption Measurement System SPS11-100n. The sample was placed in an Al crucible, and the sample was allowed to equilibrate at a given r.h. before starting a predefined humidity program. The used measurement program can be recognized in the corresponding figures (blue line).
In order to examine the behaviour of Batch 1 in the presence of variable water vapour pressure, the sample was analyzed by DVS. […] The sample was conditioned at 50% r.h. before starting a pre-defined humidity program with a scanning rate of 5% r.h. change per hour. Below 50% r.h. a continuous mass loss is observed. […] At relative humidities above 84% r.h. an increased water uptake is observed. At 95% r.h. no equilibrium is reached. This is typical for amorphous material. At the end of the measurement (end humidity 50% r.h.) the sample has a 0.6% higher mass as the starting material. The sample was checked by FT-Raman (pre- and post DVS measurements).

The next data set is described as follows: TG-FTIR thermogravimetry. To be noted: 25° C. to 250° C., heating rate 10° C./min. Type of data set: physicochemical. The protocol:
TG-FTIR: Thermogravimetric measurements were carried out with a Netzsch Thermo-Microbalance TG 209 coupled to a Bruker FTIR Spectrometer Vector 22 or IFS 28 (sample pans with a pinhole, N2 atmosphere, heating rate 10° C./min, range 25° C. up to 250° C.).
Batch 3 was analyzed by TG-FTIR in a temperature range of 25° C. to 250° C. and a heating rate of 10° C./min. […] Decomposition occurs above ˜160° C. Therefore the material is likely a non-solvated form.

A further data set addresses T1, CRTH2 receptor (Homo sapiens, UniProt Q9Y5Y4).
T1 sequence (Q9Y5Y4 1-395): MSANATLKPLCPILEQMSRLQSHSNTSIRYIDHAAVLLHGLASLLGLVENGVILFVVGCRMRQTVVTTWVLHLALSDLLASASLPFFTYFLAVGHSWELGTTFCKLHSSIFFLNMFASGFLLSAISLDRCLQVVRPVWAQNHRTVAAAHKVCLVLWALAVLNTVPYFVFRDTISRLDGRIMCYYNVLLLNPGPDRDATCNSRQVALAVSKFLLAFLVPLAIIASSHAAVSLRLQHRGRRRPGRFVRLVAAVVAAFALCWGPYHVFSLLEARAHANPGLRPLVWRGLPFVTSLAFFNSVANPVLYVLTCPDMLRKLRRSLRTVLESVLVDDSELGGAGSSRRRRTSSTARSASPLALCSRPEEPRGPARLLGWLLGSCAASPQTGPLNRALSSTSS
The following applies: cited from earlier work.

A short description of data set [2]: Solubility of polymorphic forms in simulated intestinal fluids by HPLC. The data set is classed as physicochemical. The following applies: for Solubility / pH of Saturated solution: 25° C., equilibrated 24 hours. As to the method: The solubility of Form 1, Form 2 and Form 3 was determined by HPLC in fasted state simulated intestinal fluid (FaSSIF) and fed state simulated intestinal fluid (FeSSIF) at 25° C. FaSSIF and FeSSIF were prepared from SIF powder, available at PHARES, Switzerland. Suspensions of […] were prepared and equilibrated for 24 hours at 25° C. The suspensions were filtered. The pH values of the resulting saturated solutions were measured. The filtrates were diluted and analyzed by HPLC using a general, unoptimized method. The values listed below are averages over multiple repetitions. Additionally Raman spectra of the recovered solids were recorded.

Data set [3] can be described thus: Thermodynamic stability of polymorphic forms (suspension equilibration). The data set is classed as physicochemical. As to the method:
Polymorphic Form 3 has a melting signal at 200° C. as measured by differential scanning calorimetry and is stable at temperatures above about 60-65° C.
A mixture with similar ratios of the products of Example 4, Experiment 15 (Form 1), Example 4, Experiment 9 (form 2+x) and Example 4, Experiment 6 (Form 2+Form 3) were suspended in acetonitrile and shaken for 13 days at 22° C. to give a product designated Product P24). The solid was recovered by filter centrifugation and characterized by PXRD. […] These signals could be assigned to (i) another crystalline form or (ii) the signals could not be detected for Product P24 because the diffractogram has a lower intensity.
Thus, after 13 days at 22° C. the PXRD corresponds to that of Form 2.

Structures are written as SMILES. Values after ≈ are worked out from the molar mass of the structure shown. “Also recorded” adds a separate entry of the source.

In the case of `Cc1c(Cc2cccnc2S(=O)(=O)c2ccc(F)cc2)c2cc(F)ccc2n1CC(=O)O` [Batch 1, [5-fluoro-3-({2-[(4-fluorobenzene)sulfonyl]pyridin-3-yl}methyl)-2-methylindol-1-yl]-acetic acid], in data set [1] (end humidity 50% r.h., 5% r.h. change per hour), the “Mass change at end of DVS measurement versus starting material” value was found to be 0.6%. Also, the “Phase transition after DVS (FT-Raman pre- and post)” value in data set [1] (sample recovered from DVS) is “no phase transition”.

Regarding `Cc1c(Cc2cccnc2S(=O)(=O)c2ccc(F)cc2)c2cc(F)ccc2n1CC(=O)O` [Batch 3, [5-fluoro-3-({2-[(4-fluorobenzene)sulfonyl]pyridin-3-yl}methyl)-2-methylindol-1-yl]-acetic acid], the Decomposition temperature in “TG-FTIR thermogravimetry” was > 160 °C.

On to `Cc1c(Cc2cccnc2S(=O)(=O)c2ccc(F)cc2)c2cc(F)ccc2n1CC(=O)O` [Compound 1, [5-fluoro-3-({2-[(4-fluorobenzene)sulfonyl]pyridin-3-yl}methyl)-2-methylindol-1-yl]-acetic acid], for which, at CRTH2 receptor, the CRTH2 antagonist activity entry is listed as “has CRTH2 antagonist activity”.

As to `Cc1c(Cc2cccnc2S(=O)(=O)c2ccc(F)cc2)c2cc(F)ccc2n1CC(=O)O` [Form 1, [5-fluoro-3-({2-[(4-fluorobenzene)sulfonyl]pyridin-3-yl}methyl)-2-methylindol-1-yl]-acetic acid], in data set [2] (FaSSIF), the Solubility is 720 µg/mL (≈ 1580 µM) and the “pH of Saturated solution” value is recorded as 5.7. In data set [2] (FeSSIF), the Solubility is 1180 µg/mL (≈ 2590 µM) and the “pH of Saturated solution” value was 4.9. Further, the “Temperature range of thermodynamic stability” value (“Temperature range” below) in data set [3] is “thermodynamically stable at high temperatures”.

Turning to `Cc1c(Cc2cccnc2S(=O)(=O)c2ccc(F)cc2)c2cc(F)ccc2n1CC(=O)O` [Form 2, [5-fluoro-3-({2-[(4-fluorobenzene)sulfonyl]pyridin-3-yl}methyl)-2-methylindol-1-yl]-acetic acid], in data set [2] (FaSSIF), the Solubility is 550 µg/mL (≈ 1200 µM) and the “pH of Saturated solution” value is on record as 6.1. In data set [2] (FeSSIF), the Solubility is 350 µg/mL (≈ 767 µM) and the “pH of Saturated solution” value is given as 5.0. Besides, in data set [3], the “Temperature range” value is 60-65 °C. Besides, the “Most stable form after suspension equilibration of a mixture of forms” value in data set [3] (acetonitrile, 13 days at 22° C., PXRD) was “most stable form at room temperature”.

As for `Cc1c(Cc2cccnc2S(=O)(=O)c2ccc(F)cc2)c2cc(F)ccc2n1CC(=O)O` [Form 3, [5-fluoro-3-({2-[(4-fluorobenzene)sulfonyl]pyridin-3-yl}methyl)-2-methylindol-1-yl]-acetic acid], in data set [2] (FaSSIF and FeSSIF), the “Comparative solubility among crystalline forms” value was “most soluble crystalline form; also recorded: more soluble in both FaSSIF and FeSSIF”. In addition, in data set [2] (FaSSIF), the Solubility was 1310 µg/mL (≈ 2870 µM) and the “pH of Saturated solution” value was 5.4. Further, in data set [2] (FeSSIF), the Solubility was 2120 µg/mL (≈ 4640 µM) and the “pH of Saturated solution” value is 5.0. In data set [3], the “Temperature range” value is 60-65 °C.

(Values after US9951042B2, “Polymorphic form of [5-fluoro-3-({2-[(4-fluorobenzene) sulfonyl] pyridin-3-yl}methyl)-2-methylindol-1-yl]-acetic acid” (Atopix Therapeutics Limited, priority 2014, dated 2018).)
